{"source": "patent US20260021059A1", "about": "“THERAPEUTIC COMBINATIONS AND METHODS” (RUTGERS, THE STATE UNIVERSITY OF NEW JERSEY, priority 2022, published 2026)", "key": {"[1]": {"test_system": "BED patients", "settings": "daily LDX administration; cited from earlier work"}, "[2]": {"test_system": "rats", "test": "Palatable food intake (binge-like eating) of a fat/sucrose mixture during 30 min exposure periods", "assay_type": "in vivo", "settings": "for palatable food intake (binge-like eating): N=5; for palatable food intake: N=12", "experimental": "Rats were trained to consume a palatable fat mixture (90% vegetable shortening, 10% sucrose) during brief exposure periods (30 mins) that occurred twice per week. The amount of palatable food consumed during these 30 min exposure periods was measured."}, "[3]": {"test_system": "rats", "test": "Sleep EEG/EMG telemetry recordings over the 12 hours inactive period", "settings": "d-amphetamine alone 0.75 mg/kg i.p., 1 hr prior to onset of inactive period"}, "[4]": {"test_system": "rats", "test": "Locomotor activity / behavioral sensitization on repeated (7 d) dosing", "assay_type": "in vivo", "settings": "d-amphetamine alone 0.375 mg/kg i.p., 7 consecutive days; recorded 1 hour following treatment", "experimental": "Rats were measured for baseline locomotor activity (Day 0). Rats then received injections of saline, d-amphetamine, or the combination of d-amphetamine and suvorexant, for 7 consecutive days. Locomotor activity was recorded for 1 hour following treatment."}}, "note": "“Also recorded” adds a separate entry of the source."}
{"smiles": "C[C@@H](Cc1ccccc1)NC(=O)[C@@H](N)CCCCN", "note": "[LDX, lisdexamfetamine]", "values": [{"measurement": "binge frequency", "setting": "[1]", "value": "highly effective at reducing binge frequency"}, {"measurement": "patients reporting complete binge cessation", "setting": "[1]", "value": "35-50%"}]}
{"smiles": "Cc1nc2ccc(NC(=O)Nc3ccnc4cccnc34)cc2o1", "note": "[SB334867]", "values": [{"measurement": "palatable food intake (binge-like eating)", "setting": "[2]; SB334867 alone 10 mg/kg i.p.", "value": "observed only at the highest dose; also recorded: A significant reduction was observed only at a high dose"}, {"measurement": "palatable food intake (binge-like eating)", "setting": "[2]; SB334867 alone 30 mg/kg i.p.", "value": "significant change; also recorded: significant reduction"}]}
{"smiles": "C[C@H](N)Cc1ccccc1", "note": "[d-amphetamine]", "values": [{"measurement": "total time in REM sleep compared to baseline", "setting": "[3]", "value": "decreased"}, {"measurement": "total time in active wake compared to baseline", "setting": "[3]", "value": "increased"}, {"measurement": "locomotor activity (behavioral reactivity)", "setting": "[4]", "value": "significantly higher; also recorded: increased locomotor activity"}, {"measurement": "palatable food intake", "setting": "[2]; d-amphetamine alone 0.1875 mg/kg i.p. prior to test session", "value": "no significant change; also recorded: no effect"}, {"measurement": "palatable food intake", "setting": "[2]; d-amphetamine alone 0.375 mg/kg i.p. prior to test session", "value": "no significant change; also recorded: no effect"}]}
{"smiles": "Cc1ccc(-n2nccn2)c(C(=O)N2CCN(c3nc4cc(Cl)ccc4o3)CC[C@H]2C)c1", "note": "[suvorexant]", "values": [{"measurement": "palatable food intake", "setting": "[2]; suvorexant alone 10 mg/kg i.p. prior to test session", "value": "no significant change; also recorded: no effect"}]}
